Results from doi:10.1101/2023.10.03.560722, “Drug Discovery in Low Data Regimes: Leveraging a Computational Pipeline for the Discovery of Novel SARS-CoV-2 Nsp14-MTase Inhibitors” (bioRxiv, 2024).
Like-named read-outs stand apart in the source and are kept apart here.

Legend:
[1] = molecular target: human RNMT (N7 guanosine RNA methyltransferase) (Homo sapiens, UniProt O43148); assay: RNMT activity inhibition (selectivity); type: biochemical
PRMT3 = PRMT3 (Homo sapiens, UniProt O60678); assay: human MTase selectivity panel; type: biochemical
Sequence of PRMT3 (O60678 whole entry): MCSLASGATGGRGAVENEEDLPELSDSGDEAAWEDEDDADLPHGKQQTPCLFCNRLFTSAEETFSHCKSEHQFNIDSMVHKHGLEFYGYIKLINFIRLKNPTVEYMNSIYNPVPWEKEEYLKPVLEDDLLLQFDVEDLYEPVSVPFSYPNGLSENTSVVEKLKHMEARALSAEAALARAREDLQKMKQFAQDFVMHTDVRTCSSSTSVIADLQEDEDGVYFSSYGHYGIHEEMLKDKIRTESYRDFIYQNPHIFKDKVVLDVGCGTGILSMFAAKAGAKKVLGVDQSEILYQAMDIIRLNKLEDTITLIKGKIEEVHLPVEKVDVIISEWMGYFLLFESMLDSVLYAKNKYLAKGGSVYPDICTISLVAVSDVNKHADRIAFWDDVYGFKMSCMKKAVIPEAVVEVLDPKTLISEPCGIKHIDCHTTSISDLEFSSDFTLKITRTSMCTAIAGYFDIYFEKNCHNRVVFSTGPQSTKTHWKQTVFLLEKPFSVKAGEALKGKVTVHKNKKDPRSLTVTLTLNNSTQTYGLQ

NSD3 = molecular target: T1, NSD3 (Homo sapiens, UniProt Q9BZ95); assay: human MTase selectivity panel; type: biochemical
T1 sequence (Q9BZ95 1-1437): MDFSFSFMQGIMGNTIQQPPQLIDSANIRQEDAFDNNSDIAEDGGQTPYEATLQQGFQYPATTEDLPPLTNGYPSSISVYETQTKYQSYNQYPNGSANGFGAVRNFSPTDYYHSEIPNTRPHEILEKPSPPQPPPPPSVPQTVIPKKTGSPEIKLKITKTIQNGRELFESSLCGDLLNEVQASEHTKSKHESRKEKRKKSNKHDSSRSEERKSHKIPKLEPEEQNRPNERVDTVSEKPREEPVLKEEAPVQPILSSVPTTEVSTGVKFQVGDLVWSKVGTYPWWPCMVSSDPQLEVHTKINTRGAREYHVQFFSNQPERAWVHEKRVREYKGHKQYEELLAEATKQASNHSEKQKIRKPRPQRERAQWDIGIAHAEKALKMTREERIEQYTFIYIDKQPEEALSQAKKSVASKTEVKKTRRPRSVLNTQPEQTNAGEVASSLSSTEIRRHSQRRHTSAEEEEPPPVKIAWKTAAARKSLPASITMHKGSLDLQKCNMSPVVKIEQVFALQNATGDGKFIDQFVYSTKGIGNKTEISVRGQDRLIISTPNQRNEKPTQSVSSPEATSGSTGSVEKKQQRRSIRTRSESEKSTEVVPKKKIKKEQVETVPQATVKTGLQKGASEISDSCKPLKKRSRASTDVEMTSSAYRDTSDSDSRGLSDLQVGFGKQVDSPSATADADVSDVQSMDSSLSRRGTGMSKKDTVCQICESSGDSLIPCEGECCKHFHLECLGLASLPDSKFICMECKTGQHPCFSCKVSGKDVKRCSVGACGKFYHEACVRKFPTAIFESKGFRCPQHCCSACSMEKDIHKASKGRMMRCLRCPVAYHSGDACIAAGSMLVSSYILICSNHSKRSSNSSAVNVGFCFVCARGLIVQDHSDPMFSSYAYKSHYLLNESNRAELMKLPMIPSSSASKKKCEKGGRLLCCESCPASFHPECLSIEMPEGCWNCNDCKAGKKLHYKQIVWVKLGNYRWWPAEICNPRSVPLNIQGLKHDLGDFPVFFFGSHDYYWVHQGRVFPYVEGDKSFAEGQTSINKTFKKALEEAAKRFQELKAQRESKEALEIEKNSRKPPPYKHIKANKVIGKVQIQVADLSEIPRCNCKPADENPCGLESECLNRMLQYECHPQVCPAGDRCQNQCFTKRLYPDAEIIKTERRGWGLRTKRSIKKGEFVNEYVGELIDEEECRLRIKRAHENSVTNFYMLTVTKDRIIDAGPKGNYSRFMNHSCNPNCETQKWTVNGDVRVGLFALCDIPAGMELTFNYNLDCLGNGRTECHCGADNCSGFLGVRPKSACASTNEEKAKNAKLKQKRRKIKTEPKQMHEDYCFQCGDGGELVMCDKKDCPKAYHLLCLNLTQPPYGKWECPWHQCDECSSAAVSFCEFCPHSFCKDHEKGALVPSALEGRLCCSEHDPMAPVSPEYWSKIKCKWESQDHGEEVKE

MLL1 = MLL1 (Homo sapiens, UniProt Q03164); assay: human MTase selectivity panel; type: biochemical
Sequence of MLL1 (Q9UBL3 whole entry): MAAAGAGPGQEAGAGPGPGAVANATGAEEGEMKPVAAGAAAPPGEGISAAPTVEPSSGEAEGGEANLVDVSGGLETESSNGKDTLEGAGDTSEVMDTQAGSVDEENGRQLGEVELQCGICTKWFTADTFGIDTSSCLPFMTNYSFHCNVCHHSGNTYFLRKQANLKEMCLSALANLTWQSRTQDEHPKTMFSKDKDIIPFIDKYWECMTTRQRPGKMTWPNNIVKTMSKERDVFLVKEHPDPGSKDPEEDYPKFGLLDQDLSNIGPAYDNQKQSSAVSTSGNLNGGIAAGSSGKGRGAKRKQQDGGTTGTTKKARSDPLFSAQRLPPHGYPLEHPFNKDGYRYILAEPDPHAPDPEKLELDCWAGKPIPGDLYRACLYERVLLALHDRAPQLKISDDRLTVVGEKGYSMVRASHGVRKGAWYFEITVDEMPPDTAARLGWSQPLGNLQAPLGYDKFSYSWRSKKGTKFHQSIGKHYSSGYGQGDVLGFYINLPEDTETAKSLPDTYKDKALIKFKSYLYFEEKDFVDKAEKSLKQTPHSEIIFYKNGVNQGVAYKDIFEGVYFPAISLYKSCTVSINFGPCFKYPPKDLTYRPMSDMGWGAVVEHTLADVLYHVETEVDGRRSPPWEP
Sequence of MLL1 (Q15291 whole entry, further chain): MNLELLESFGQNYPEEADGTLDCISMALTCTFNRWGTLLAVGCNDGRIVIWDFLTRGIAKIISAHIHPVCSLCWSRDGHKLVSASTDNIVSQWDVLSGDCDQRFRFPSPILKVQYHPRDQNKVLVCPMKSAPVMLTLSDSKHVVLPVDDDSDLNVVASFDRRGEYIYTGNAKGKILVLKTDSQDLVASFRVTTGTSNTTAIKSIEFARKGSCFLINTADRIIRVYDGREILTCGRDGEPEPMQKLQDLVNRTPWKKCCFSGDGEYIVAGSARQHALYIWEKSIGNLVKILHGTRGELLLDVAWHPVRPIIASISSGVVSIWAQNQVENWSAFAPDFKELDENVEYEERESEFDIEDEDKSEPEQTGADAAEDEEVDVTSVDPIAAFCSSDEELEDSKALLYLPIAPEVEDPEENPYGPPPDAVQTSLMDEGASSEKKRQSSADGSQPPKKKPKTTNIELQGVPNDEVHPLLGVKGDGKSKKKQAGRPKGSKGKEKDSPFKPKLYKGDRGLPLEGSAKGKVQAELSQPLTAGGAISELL
Sequence of MLL1 (Q03164 3745-3969): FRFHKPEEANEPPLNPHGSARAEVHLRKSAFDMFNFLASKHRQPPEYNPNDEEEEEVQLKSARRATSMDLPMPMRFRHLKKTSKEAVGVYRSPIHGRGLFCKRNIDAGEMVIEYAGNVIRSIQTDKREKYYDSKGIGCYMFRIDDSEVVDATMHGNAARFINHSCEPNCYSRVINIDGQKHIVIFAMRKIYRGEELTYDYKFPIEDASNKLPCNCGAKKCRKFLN

SMYD2 = SMYD2 (Homo sapiens, UniProt Q9NRG4); assay: human MTase selectivity panel; type: biochemical
Sequence of SMYD2 (Q9NRG4 whole entry): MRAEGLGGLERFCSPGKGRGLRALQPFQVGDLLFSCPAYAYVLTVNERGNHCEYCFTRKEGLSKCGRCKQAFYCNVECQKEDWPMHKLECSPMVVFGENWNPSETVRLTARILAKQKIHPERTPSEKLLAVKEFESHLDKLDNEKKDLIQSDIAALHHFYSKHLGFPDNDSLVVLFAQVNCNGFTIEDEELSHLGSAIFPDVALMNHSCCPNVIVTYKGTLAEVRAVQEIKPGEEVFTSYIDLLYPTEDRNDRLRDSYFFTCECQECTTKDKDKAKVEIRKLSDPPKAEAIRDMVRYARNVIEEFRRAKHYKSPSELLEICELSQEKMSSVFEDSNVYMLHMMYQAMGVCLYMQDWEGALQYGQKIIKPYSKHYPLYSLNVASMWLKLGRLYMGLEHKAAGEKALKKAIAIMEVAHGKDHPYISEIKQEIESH

nsp14 = nsp14 (Severe acute respiratory syndrome coronavirus 2, UniProt P0DTD1); assay: surface plasmon resonance (SPR) binding to immobilized full-length biotinylated nsp14; parameters: species or system SARS-CoV-2; settings: n = 3
Method: For Surface Plasmon Resonance (SPR), the full-length biotinylated nsp14 was immobilized on the flow cell of a SA sensor chip in 1x HBS-EP buffer, achieving a response of 8000 RU. The assay was performed using the same buffer but with 2% DMSO added. Single-cycle kinetics were employed with a contact time of 60 seconds and a dissociation time of 120 seconds, at a flow rate of 75 µL/min. NSC620333 was tested at a concentration of 10 µM as the highest concentration, and a dilution factor of 0.25 was used to yield five different concentrations.

PRMT4 = molecular target: T2, PRMT4 (Homo sapiens, UniProt Q86X55); assay: human MTase selectivity panel; type: biochemical
T2 sequence (Q86X55 1-608): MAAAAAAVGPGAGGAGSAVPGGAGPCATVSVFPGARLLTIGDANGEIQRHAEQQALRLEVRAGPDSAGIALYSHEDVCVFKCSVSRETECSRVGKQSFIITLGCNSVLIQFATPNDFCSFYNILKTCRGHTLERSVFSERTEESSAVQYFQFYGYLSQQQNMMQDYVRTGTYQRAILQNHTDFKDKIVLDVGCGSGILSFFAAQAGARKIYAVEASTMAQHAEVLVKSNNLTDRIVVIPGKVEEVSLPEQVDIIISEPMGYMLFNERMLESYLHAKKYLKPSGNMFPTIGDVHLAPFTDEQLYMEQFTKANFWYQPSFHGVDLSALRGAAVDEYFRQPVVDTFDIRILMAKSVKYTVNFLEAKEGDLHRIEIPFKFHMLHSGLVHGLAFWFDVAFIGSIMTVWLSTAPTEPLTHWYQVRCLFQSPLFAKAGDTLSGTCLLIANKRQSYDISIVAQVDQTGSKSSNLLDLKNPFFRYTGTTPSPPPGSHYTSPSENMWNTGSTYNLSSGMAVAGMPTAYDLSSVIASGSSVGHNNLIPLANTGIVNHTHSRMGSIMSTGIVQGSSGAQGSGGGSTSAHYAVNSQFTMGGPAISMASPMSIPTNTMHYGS

[2] = average ± SD, read-out: Activity (%) at 10 µM Average
[3] = read-out: Activity (%) at 10 µM Replicate 1
[4] = read-out: Activity (%) at 10 µM Replicate 2
[5] = read-out: Activity (%) at 10 µM Replicate 3

Sequence of human RNMT (N7 guanosine RNA methyltransferase) (O43148 whole entry): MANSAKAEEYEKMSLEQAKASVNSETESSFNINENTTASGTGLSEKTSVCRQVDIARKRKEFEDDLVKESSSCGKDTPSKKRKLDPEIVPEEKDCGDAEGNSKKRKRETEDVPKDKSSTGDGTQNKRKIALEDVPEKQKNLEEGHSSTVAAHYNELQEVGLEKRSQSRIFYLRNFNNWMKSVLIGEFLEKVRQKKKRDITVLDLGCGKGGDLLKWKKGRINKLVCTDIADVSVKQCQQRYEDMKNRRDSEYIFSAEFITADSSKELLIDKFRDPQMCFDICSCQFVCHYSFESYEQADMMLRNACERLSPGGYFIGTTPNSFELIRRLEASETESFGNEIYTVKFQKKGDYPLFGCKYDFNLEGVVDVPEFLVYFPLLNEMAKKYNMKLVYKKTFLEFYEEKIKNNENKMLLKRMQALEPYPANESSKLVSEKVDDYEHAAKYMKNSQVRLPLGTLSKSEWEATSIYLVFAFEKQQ

`Nc1ncnc2c1ncn2[C@@H]1O[C@H](CSCc2ccc(Cl)cc2)[C@@H](O)[C@H]1O` [NSC620333] was tested, and the IC50 ([1]; RNMT) was 8600 ± 1300 nM, the “Hill Slope” value ([1]; RNMT IC50 curve) was -1.5 and the activity at 10 µM (PRMT3; [2]) was 79 ± 5%. The activity at 10 µM (PRMT3; [3]) was 75%, the activity at 10 µM (PRMT3; [4]) was 78% and the activity at 10 µM (PRMT3; [5]) was 85%. The activity at 10 µM (NSD3; [2]) was 110 ± 5%, the activity at 10 µM (NSD3; [3]) was 112% and the activity at 10 µM (NSD3; [4]) was 104%. For the same compound, the activity at 10 µM (NSD3; [5]) was 115%, the activity at 10 µM (MLL1; [2]) was 85 ± 2% and the activity at 10 µM (MLL1; [3]) was 84%. For the same compound, the activity at 10 µM (MLL1; [4]) was 87%, the activity at 10 µM (MLL1; [5]) was 84% and the activity at 10 µM (SMYD2; [2]) was 105 ± 8%. It also gave an activity at 10 µM (SMYD2; [3]) of 104%, an activity at 10 µM (SMYD2; [4]) of 114% and an activity at 10 µM (SMYD2; [5]) of 99%. For the same compound, the Kd (nsp14; SPR single-cycle kinetics, read-out: KD (kinetic fitting)) was 427 ± 84 nM, the Kd (nsp14; SPR steady-state 1:1 binding model, read-out: steady-state KD) was 544 ± 22 nM and the activity at 10 µM (PRMT4; [2]) was 97 ± 3%. It also gave an activity at 10 µM (PRMT4; [3]) of 96%, an activity at 10 µM (PRMT4; [4]) of 95% and an activity at 10 µM (PRMT4; [5]) of 101%.
